Measured values as given in patent US20200054555A1, “CONTACT LENS WITH FUNCTIONAL COMPONENTS AND PRODUCTS THEREOF” (UNICON OPTICAL CO., LTD., priority 2018, published 2020).

Test: accumulated release of functional components from the contact lens over time, detected by high performance liquid chromatography
Type: physicochemical
Conditions: with a cyclic oligosaccharide or cyclic polysaccharide
Description: Further, the present invention uses high performance liquid chromatography to detect accumulation of the released functional components of the contact lens with increasing time. It is learned from FIG. 2: the contact lens of the present invention, which is a HEMA lens made up of 38% water by weight and a cyclic oligosaccharide or cyclic polysaccharide, can persistently release Vitamin B12 for a longer period of time (more than 12 hours). It is learned from FIG. 3: the contact lens of the present invention, which is an organosilicon hydrogel contact lens made up of 43% water by weight and a cyclic oligosaccharide or cyclic polysaccharide, can persistently release Vitamin B12 for a longer period of time (more than 12 hours). It is learned from FIG. 4: the contact lens of the present invention, which contains HEMA and 38% water by weight and a cyclic oligosaccharide or cyclic polysaccharide, can persistently release curcumin for a longer period of time (more than 20 hours). It is learned from FIG. 5: the contact lens of the present invention, which contains HEMA and 38% water by weight and a cyclic oligosaccharide or cyclic polysaccharide, can persistently release quercetin in a longer time interval (more than 20 hours). It is learned from FIG. 6: the contact lens of the present invention, which is made from HEMA and 38% water by weight, and a cyclic oligosaccharide or cyclic polysaccharide, can persistently release xanthophyll for a longer period of time (more than 30 hours).

[1] = HEMA contact lens, 38% water by weight, FIG. 2, 4, 5, 6

period of persistent release of the functional component from the contact lens (organosilicon hydrogel contact lens, 43% water by weight, FIG. 3) | Substance | period of persistent release of the functional component from the contact lens [1]
more than 12 hours | Vitamin B12 | more than 12 hours
– | xanthophyll | more than 30 hours
